This is an account of results in US6790986B1, “Process for the preparation of gabapentin free from inorganic acids anions” (Farchemia S.r.l., priority 2003, dated 2004).

Series [1] is described as follows: storage stability (increase of lactam content on storage). The series is classed as physicochemical. The note with it: gabapentin obtained by the process; after one year at 25° C. and 50% humidity. The protocol:
According to the invention, an aqueous solution containing approx. 10 to approx. 18 kg, preferably 13-15 kg, of gabapentin per 100 liters of water, at a temperature ranging from approx. 25 to approx. 60° C., preferably from 30 to 45° C., is added with the hydroxyacid in amounts of 0.95-1.05 mols per mol of gabapentin, the preferred molar ratio between the compounds being 1:1. The resulting suspension is stirred at the same temperature for 5-10 hours, then cooled to approx. 15-25° C. The resulting gabapentin hydroxybenzoate is dried under vacuum at approx. 50° C. The yield is approx. 90% on theoretical, with a assay higher than 99.5%. The resulting salt is suspended in a lower alcohol, preferably absolute ethanol, in amounts of approx. 3-5 liters per kg of salt, at a temperature of 15-25° C., and the suspension is added with an amount of tertiary amine (preferably tributylamine and most preferably N-ethyl-diisopropylamine (“Hünig base”)) in amounts of 1-1.2 mols per mol of gabapentin hydroxybenzoate. After stirring for some hours at the same temperature, the mixture is cooled to 5-10° C., the precipitated gabapentin is filtered or centrifuged, washed with the same alcohol, then stirred with ethanol containing approx. 10% by volume of water.

For series [2] the following is noted: stated as known; cited from earlier work.
The conditions of series [3]: hydroxybenzoate salts of gabapentin in water; precipitates from aqueous solution. The source says:
Numerous processes for reducing the chloride ions content in gabapentin exist. […] The proportion of remaining hydrochloride admixtures should thereby not exceed 20 ppm. The same also applies to other mineral acids.”

Like-named read-outs stand apart in the source and are kept apart here.

As to `NCC1(CC(=O)O)CCCCC1` [gabapentin, 1-(aminomethyl)-cyclohexaneacetic acid], the “increase of content in lactam on storage” value in series [1] is given as “does not undergo substantial increases”. In series [2], the water-solubility result is given as “highly water-soluble”.

Take `NCC1(CC(=O)O)CCCCC1.O=C(O)c1ccccc1O` [salicylate, gabapentin salicylate]: in series [3], the water-solubility entry is “so poor”. The same measure, in the same setting: the entry for `NCC1(CC(=O)O)CCCCC1.O=C(O)c1ccc(O)cc1` [gabapentin 4-hydroxybenzoate] is “so poor”.
